# Source: ChEMBL document CHEMBL3885861, “Open TG-GATES”
# Organism: Rattus norvegicus
# Test: Open TG-GATES - Regimen: Single
# Type: toxicity, organism-based, Sprague-Dawley
# Parameters: regimen Single, gender Male, age 6 weeks
# Settings: in vivo, po, 100 mg/kg, route gavage, dose level Low; for APTT / Bas / Eos / Fbg / Hb / Ht / Lym / MCH / MCHC / MCV / Mono / Neu / PT / Plat / RBC / Ret / WBC: tissue Blood; for KIDNEY_L / KIDNEY_R / KIDNEY_TOTAL: tissue Kidney; for LIVER: tissue Liver; for A/G / ALP / ALT / AST / BUN / CRE / Ca / Cl / DBIL / GLC / IP / K / LDH / Na / PL / RALB / TBIL / TC / TG / TP / gamma-GTP: tissue Plasma
structure (smiles),measurement,setting,value
COC1=CC(=O)C[C@@H](C)[C@]12Oc1c(Cl)c(OC)cc(OC)c1C2=O [GRISEOFULVIN],TERMINAL_BW,3 h,211.4 g
same,APTT,3 h,18.7 s
same,Bas,3 h,0%
same,Eos,3 h,0.8%
same,Fbg,3 h,213 mg/dL
same,Hb,3 h,13 g/dL
same,Ht,3 h,37.9%
same,Lym,3 h,77%
same,MCH,3 h,21.6 pg
same,MCHC,3 h,34.3%
same,MCV,3 h,63.2 fL
same,Mono,3 h,2.8%
same,Neu,3 h,19%
same,PT,3 h,13 s
same,Plat,3 h,121.7 x10_4/uL
same,RBC,3 h,600 x10_4/ul
same,Ret,3 h,8%
same,WBC,3 h,116.5 x10_2/uL
same,KIDNEY_L,3 h,0.9 g
same,KIDNEY_R,3 h,1 g
same,KIDNEY_TOTAL,3 h,1.9 g
same,LIVER,3 h,9.4 g
same,A/G,3 h,1.7
same,ALP,3 h,1005.8 IU/L
same,ALT,3 h,37.8 IU/L
same,AST,3 h,66.8 IU/L
same,BUN,3 h,10.2 mg/dL
same,CRE,3 h,0.3 mg/dL
same,Ca,3 h,10.9 mg/dL
same,Cl,3 h,104.2 meq/L
same,DBIL,3 h,0.2 mg/dL
same,GLC,3 h,181.4 mg/dL
same,IP,3 h,8.8 mg/dL
same,K,3 h,3.7 meq/L
same,LDH,3 h,130.4 IU/L
same,Na,3 h,141.6 meq/L
same,PL,3 h,164 mg/dL
same,RALB,3 h,3.4 g/dL
same,TBIL,3 h,0.3 mg/dL
same,TC,3 h,80.6 mg/dL
same,TG,3 h,131.4 mg/dL
same,TP,3 h,5.4 g/dL
same,gamma-GTP,3 h,0.8 IU/L
same,TERMINAL_BW,6 h,209.8 g
same,APTT,6 h,17.8 s
same,Bas,6 h,0%
same,Eos,6 h,1%
same,Fbg,6 h,218 mg/dL
same,Hb,6 h,13.3 g/dL
same,Ht,6 h,38.8%
same,Lym,6 h,75.6%
same,MCH,6 h,22 pg
same,MCHC,6 h,34.3%
same,MCV,6 h,64.2 fL
same,Mono,6 h,3%
same,Neu,6 h,20%
same,PT,6 h,13 s
same,Plat,6 h,135.7 x10_4/uL
same,RBC,6 h,604.8 x10_4/ul
same,Ret,6 h,8%
same,WBC,6 h,100.3 x10_2/uL
same,KIDNEY_L,6 h,0.9 g
same,KIDNEY_R,6 h,0.9 g
same,KIDNEY_TOTAL,6 h,1.9 g
same,LIVER,6 h,9.1 g
same,A/G,6 h,1.8
same,ALP,6 h,1063.4 IU/L
same,ALT,6 h,38.6 IU/L
same,AST,6 h,70.8 IU/L
same,BUN,6 h,10 mg/dL
same,CRE,6 h,0.4 mg/dL
same,Ca,6 h,10.8 mg/dL
same,Cl,6 h,103.4 meq/L
same,DBIL,6 h,0.094 mg/dL
same,GLC,6 h,200.4 mg/dL
same,IP,6 h,9.7 mg/dL
same,K,6 h,4 meq/L
same,LDH,6 h,179.4 IU/L
same,Na,6 h,141 meq/L
same,PL,6 h,148.4 mg/dL
same,RALB,6 h,3.4 g/dL
same,TBIL,6 h,0.2 mg/dL
same,TC,6 h,80.8 mg/dL
same,TG,6 h,48.6 mg/dL
same,TP,6 h,5.4 g/dL
same,gamma-GTP,6 h,1.6 IU/L
same,TERMINAL_BW,9 h,207.5 g
same,APTT,9 h,18.1 s
same,Bas,9 h,0%
same,Eos,9 h,1%
same,Fbg,9 h,222.6 mg/dL
same,Hb,9 h,13.2 g/dL
same,Ht,9 h,38.8%
same,Lym,9 h,74.8%
same,MCH,9 h,21.4 pg
same,MCHC,9 h,34.1%
same,MCV,9 h,62.9 fL
same,Mono,9 h,2.2%
same,Neu,9 h,22%
same,PT,9 h,13.3 s
same,Plat,9 h,123.9 x10_4/uL
same,RBC,9 h,617.8 x10_4/ul
same,Ret,9 h,7.5%
same,WBC,9 h,96 x10_2/uL
same,KIDNEY_L,9 h,1 g
same,KIDNEY_R,9 h,0.9 g
same,KIDNEY_TOTAL,9 h,1.9 g
same,LIVER,9 h,8.6 g
same,A/G,9 h,1.7
same,ALP,9 h,994.6 IU/L
same,ALT,9 h,34.4 IU/L
same,AST,9 h,64.2 IU/L
same,BUN,9 h,9.8 mg/dL
same,CRE,9 h,0.3 mg/dL
same,Ca,9 h,10.4 mg/dL
same,Cl,9 h,103.6 meq/L
same,DBIL,9 h,0.078 mg/dL
same,GLC,9 h,199.6 mg/dL
same,IP,9 h,10.3 mg/dL
same,K,9 h,3.9 meq/L
same,LDH,9 h,101 IU/L
same,Na,9 h,142 meq/L
same,PL,9 h,138.2 mg/dL
same,RALB,9 h,3.4 g/dL
same,TBIL,9 h,0.1 mg/dL
same,TC,9 h,72.6 mg/dL
same,TG,9 h,48 mg/dL
same,TP,9 h,5.4 g/dL
same,gamma-GTP,9 h,1.2 IU/L
same,TERMINAL_BW,24 h,224.8 g
same,APTT,24 h,19.6 s
same,Bas,24 h,0%
same,Eos,24 h,1%
same,Fbg,24 h,222.4 mg/dL
same,Hb,24 h,13.4 g/dL
same,Ht,24 h,40.6%
same,Lym,24 h,77.6%
same,MCH,24 h,21.5 pg
same,MCHC,24 h,33.1%
same,MCV,24 h,64.8 fL
same,Mono,24 h,3.2%
same,Neu,24 h,17.4%
same,PT,24 h,13.1 s
same,Plat,24 h,117.6 x10_4/uL
same,RBC,24 h,626.6 x10_4/ul
same,Ret,24 h,7.2%
same,WBC,24 h,107.9 x10_2/uL
same,KIDNEY_L,24 h,1 g
same,KIDNEY_R,24 h,1 g
same,KIDNEY_TOTAL,24 h,2 g
same,LIVER,24 h,10.8 g
same,A/G,24 h,1.5
same,ALP,24 h,926.8 IU/L
same,ALT,24 h,41.8 IU/L
same,AST,24 h,69.4 IU/L
same,BUN,24 h,14.4 mg/dL
same,CRE,24 h,0.4 mg/dL
same,Ca,24 h,11 mg/dL
same,Cl,24 h,103.4 meq/L
same,DBIL,24 h,0.1 mg/dL
same,GLC,24 h,215.8 mg/dL
same,IP,24 h,8.5 mg/dL
same,K,24 h,4.2 meq/L
same,LDH,24 h,146.6 IU/L
same,Na,24 h,141.8 meq/L
same,PL,24 h,136.4 mg/dL
same,RALB,24 h,3.3 g/dL
same,TBIL,24 h,0.2 mg/dL
same,TC,24 h,71 mg/dL
same,TG,24 h,95 mg/dL
same,TP,24 h,5.5 g/dL
same,gamma-GTP,24 h,1.4 IU/L
